Data taken from US20060160820A1, “Substituted piperazine carbamates” (Novo Nordisk A/S, priority 2003, published 2006).
Counter-ions that a name gives are not always drawn.

target: T1, Hormone-sensitive lipase (HSL) (Homo sapiens, UniProt Q05469); experiment: 3190.1: percent inhibition of hormone sensitive lipase, fluorochrome-labeled triacylglyceride emulsion; format: biochemical; details: 10 μM sample concentration; preincubated 30 min at 25° C.; 120 min incubation at 37° C.; remaining activity; read-out: 3190.1 HSL_FL % ACTIVITY (% activity relative to non-inhibited sample)
T1 construct: made in house
T1 sequence (Q05469 1-775 isoform Q05469-2): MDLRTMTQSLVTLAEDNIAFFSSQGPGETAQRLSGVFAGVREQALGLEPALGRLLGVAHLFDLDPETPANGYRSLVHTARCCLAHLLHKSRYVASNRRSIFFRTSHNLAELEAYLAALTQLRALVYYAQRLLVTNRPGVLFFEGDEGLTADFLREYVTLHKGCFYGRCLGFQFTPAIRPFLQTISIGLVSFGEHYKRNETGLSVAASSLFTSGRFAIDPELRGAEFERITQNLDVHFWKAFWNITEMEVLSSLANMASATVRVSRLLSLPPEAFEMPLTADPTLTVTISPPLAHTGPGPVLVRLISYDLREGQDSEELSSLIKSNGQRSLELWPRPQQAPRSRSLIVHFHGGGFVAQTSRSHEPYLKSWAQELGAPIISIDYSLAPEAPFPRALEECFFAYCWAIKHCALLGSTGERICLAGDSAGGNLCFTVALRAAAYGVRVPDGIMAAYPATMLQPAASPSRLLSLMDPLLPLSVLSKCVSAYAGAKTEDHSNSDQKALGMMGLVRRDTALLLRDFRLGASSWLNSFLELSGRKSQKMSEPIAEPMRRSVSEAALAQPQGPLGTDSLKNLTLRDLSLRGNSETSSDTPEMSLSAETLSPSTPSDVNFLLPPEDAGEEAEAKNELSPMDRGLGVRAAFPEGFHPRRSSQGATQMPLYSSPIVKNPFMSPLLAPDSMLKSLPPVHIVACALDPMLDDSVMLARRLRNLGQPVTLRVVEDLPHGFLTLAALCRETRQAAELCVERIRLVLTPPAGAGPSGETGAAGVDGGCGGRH
Description: The Hormone-sensitive lipase was provided by Dr. Cecilia Holm, from Lund University Sweden or produced and purified by Novo Nordisk (NN) using the reagents and protocols used by Dr. Holm. The substrates used are: ^3H-labeled triolein (TO) from Amersham, Buckinghamshire, U.K. cat No. TRA191; 5-20 Ci/mmol dissolved in toluene, triolein (Sigma, Cat. No. T-1740), fluorochrome-labeled triacylglyceride (cis-octadec-9-enoic acid 2-[12-(7-nitrobenzo[1,2,5]oxadiazol-4-ylamino)dodecanoyloxy]-1-cis-octadec-9-enoyloxymethyl-ethyl ester) prepared by Novo Nordisk (NN) by conventional methods, and 1,3-(di[^3H]-stearin), 2-(PEG-Biotin)glycerol prepared in collaboration with Amersham Pharmacia Biotech, UK and described in WO 01/073442. Phosphatidyl choline (PC) and phosphatidyl inositol (PI) are from Sigma (St Luis MO cat. Nos. P-3556 and P-5954 respectively). All other reagents are of commercial grade and obtained from various commercial sources.
3190.1: Assay for determination of percent inhibition of hormone sensitive lipase by compound at 10 μM sample concentration.
A lipid emulsion with fluorochrome-labeled triacylglyceride and phospholipid is used as substrate with a standard concentration of highly purified HSL (12 μg/mL initial concentration corresponding to 600 ng/mL final concentration). BSA is added as product acceptor. The transfer of the fluorochrome from the lipid phase to the water (BSA) phase changes the fluorescent properties of the fluorochrome. The changes can be monitored on a fluorimeter with an excitation wavelength of 450 nm and an emission wavelength of 545 nm.
Compound and HSL (20 μL compound, 10 μL enzyme and 70 μL PED-BSA buffer) is preincubated for 30 min at 25° C. before addition of substrate (100 μL). Amount of formed product is measured after 120 min incubation at 37° C.
Results are given as percent activity relative to a non-inhibited sample (no compound).

Going from `O=C(Oc1ccc(Cc2ccc(C(F)(F)F)cc2)cc1)N1CCN(CCc2ccccn2)CC1` [Example 1, 4-(2-Pyridin-2-yl-ethyl)-piperazine-1-carboxylic acid 4-(4-trifluoromethyl-benzyl)-phenyl ester] to `O=C(Oc1ccc(Cc2ccc(C(F)(F)F)cc2)cc1)N1CCN(Cc2ccccn2)CC1` [Example 2, 4-Pyridin-2-ylmethyl-piperazine-1-carboxylic acid 4-(4-trifluoromethyl-benzyl)-phenyl ester], the activity at 10 µM falls from 6% to 4%.

First: CC1(C)CC(=O)N(c2ccc(OC(=O)N3CCN(Cc4ccccn4)CC3)nc2)C(=O)C1 [Example 4, 4-Pyridin-2-ylmethyl-piperazine-1-carboxylic acid 4,4-dimethyl-2,6-dioxo-3,4,5,6-tetrahydro-2H-[1,3′]bipyridinyl-6′-yl ester]
Second: CC1(C)CC(=O)N(CCc2ccc(OC(=O)N3CCN(CCc4ccccn4)CC3)cc2)C(=O)C1 [Example 7, 4-(2-Pyridin-2-yl-ethyl)-piperazine-1-carboxylic acid 4-[2-(4,4-dimethyl-2,6-dioxo-piperidin-1-yl)-ethyl]-phenyl ester]
The activity at 10 µM of the first is higher: 64% for the first, 8% for the second.

First: O=C(Oc1ccc(Oc2ccc(C(F)(F)F)cn2)cc1)N1CCN(CCCc2cccnc2)CC1 [Example 8, 4-(3-Pyridin-3-yl-propyl)-piperazine-1-carboxylic acid 4-(5-trifluoromethyl-pyridin-2-yloxy)-phenyl ester]
Second: O=C(Oc1ccc(Oc2ccc(C(F)(F)F)cn2)cc1)N1CCN(CCc2cccnc2)CC1 [Example 9, 4-(2-Pyridin-3-yl-ethyl)-piperazine-1-carboxylic acid 4-(5-trifluoromethyl-pyridin-2-yloxy)-phenyl ester]
The activity at 10 µM of the first is lower: 1% for the first, 2% for the second.

system: not given; experiment: not given; details: not given

`O=C(Oc1ccc(Oc2ccc(C(F)(F)F)cn2)cc1)N1CCN(CCCc2ccccn2)CC1` and `O=C(Oc1ccc(Oc2ccc(C(F)(F)F)cn2)cc1)N1CCN(CCCc2cccnc2)CC1` (as salt: hydrochloride) [Example 8, 4-(3-Pyridin-3-yl-propyl)-piperazine-1-carboxylic acid 4-(5-trifluoromethyl-pyridin-2-yloxy)-phenyl ester] cannot be ordered by melting point: 204 to 205 °C for the first, 203 to 208 °C for the second.
